The conditions of this data set: 14-membered ring, Cs2CO3, DMF, 85.0 °C.
The mark [1] stands for this setting: from O=C(NC[C@H](O)CCl)c1cnn2ccc(N3CC(F)(F)CC3c3cc(F)ccc3O)nc12, ether bond, 20.0 mM.

Where two headings read alike, the source gives them in different places.

From patent publication US9902741 come the findings set out here.

Take `O=C1NC[C@H](O)COc2ccc(F)cc2C2CC(F)(F)CN2c2ccn3ncc1c3n2` (single isomer, unassigned; diastereomer 2): under setting [1], the ring closure, isolated yield turned out to be 24%.

For the setting “from N—((S)-3-chloro-2-hydroxypropyl)-5-4R)-2-(5-fluoro-2-oxo-1,2-dihydropyridin-3-yl)pyrrolidin-1-yl)pyrazolo[1,5-a]pyrimidine-3-carboxamide hydrochloride, other bond, […]”, `O=C1NC[C@H](O)Cn2cc(F)cc(c2=O)[C@H]2CCCN2c2ccn3ncc1c3n2` had a ring closure, isolated yield of 12%.

`O=C1NC[C@H](O)COc2ccc(F)cc2C2CC(F)(F)CN2c2ccn3ncc1c3n2` (single isomer, unassigned; diastereomer 1) registered a ring closure, isolated yield under setting [1] of 20%.
